One compound from patent US11433021B2, “Palonosetron for the treatment or prevention of nausea and vomiting” (ORION CORPORATION, priority 2018, dated 2022) can be followed below.

Data set [1] relates to cisplatin-induced nausea and vomiting. Description: Efficacy of palonosetron eye drops in cisplatin-induced nausea and vomiting model. It counts as in vivo, Beagle dogs. Conditions: n=6; for vomiting episodes: T0-T420 min. The protocol:
Experiment 3. Efficacy of Palonosetron Eye Drops in Cisplatin-Induced Nausea and Vomiting Model Methods: Six non-naive adult male Beagle dogs were intravenously administered (2 ml/min) cisplatin at 18 mg/m^2 body surface over 20 min. Then, 45 min after the end of the infusion, the dogs received eye drops prepared according to Formulation Example 1 at 30 or 120 μg/kg of palonosetron or its vehicle (0.9% saline, 2% povidone) in a cross-over design. Then, the following parameters were recorded by blinded observers over 15 min periods from TO (end of the infusion of cisplatin) to 420 min (T420) after the end of the infusion of cisplatin: vomiting episodes and nausea-like behaviours including salivation, exaggerated swallowing motions, lip licking, lethargy, restlessness, and turning behaviour signalling that vomiting is imminent. In addition, a visual analogue scale (VAS) from 0 to 100 mm was used to assess the severity of the dogs' nausea-like behaviours (where a score of 0 mm=no nausea and a score of 100 mm=worst possible nausea).

Data set [2] is described as follows: Bioavailability of palonosetron as ocular drops vs. intravenous administration. It counts as in vivo, Beagle dogs. On the procedure: Experiment 1. Bioavailability of Palonosetron as Ocular Drops Vs. Intravenous Administration
Bioavailability of palonosetron as ocular drops at the dose of 30 μg/kg was compared to 10 μg/kg intravenous (i.v.) palonosetron in Beagle dogs (n=6). The study was a crossover study with 7 days washout period between the treatment periods. The animals were fasted overnight before dosing by withdrawing the remaining feed (if any) at least 12 h before dosing. On dosing days food was offered approximately at 4 h after dosing (after the 4 h blood sampling).
Palonosetron 30 μg/kg eye drops prepared according to Formulation Example 1 were administered in the eye using a micropipette in an amount of 10 μl/kg (approximately half volume in each eye).
Palonosetron 10 μg/kg intravenous dose was administered in cephalic vein in slow i.v. bolus dosed within 30 seconds.
Blood samples were collected into K2EDTA tubes over a 48 h period after each treatment at the following time points: predose, 5 min, 10 min, 20 min, 30 min, 45 min, 1 h, 1.5 h, 2 h, 4 h, 6 h, 8 h, 12 h, 24 h and 48 h post administration. Aliquots of plasma were prepared and stored frozen until analysis. Palonosetron concentration in plasma was determined using Liquid chromatography-triple quadrupole mass spectrometry. The lower limit of quantification for palonosetron in dog plasma was 0.02 ng/ml.

The mark [3] stands for this setting: 30 μg/kg ocular drops (Formulation Example 1), Beagle dogs.

As to `O=C1c2cccc3c2[C@H](CCC3)CN1[C@@H]1CN2CCC1CC2` [Palonosetron], the vomiting episodes in data set [1] (30 μg/kg eye drops (Formulation Example 1) 45 min after cisplatin 18 mg/m^2 i.v.) is 1 vomiting episode in 2 dogs overall. Moreover, the “VAS AUC (nausea)” value in data set [1] (30 μg/kg eye drops (Formulation Example 1) after cisplatin 18 mg/m^2, mean±SEM) is given as 320±268 mm*m. In data set [1] (120 μg/kg eye drops (Formulation Example 1) 45 min after cisplatin 18 mg/m^2 i.v.), the vomiting episodes entry is listed as “inhibited vomiting totally”. Also, the “VAS AUC (nausea)” value in data set [1] (120 μg/kg eye drops (Formulation Example 1) after cisplatin 18 mg/m^2, mean±SEM) is 0±0 mm*m. In addition, in data set [2] (setting [3]), the absorption result is “fast absorption comparable to intravenous administration”, the elimination phase entry is given as “extended elimination phase”, the eye irritation entry is “No significant eye irritation was seen” and the systemic exposure entry is given as “good systemic exposure”. Moreover, in data set [2] (dog, other: ocular drops (administered in the eye), 30 μg/kg ocular drops (Formulation Example 1) vs. 10 μg/kg i.v., Beagle dogs (n=6), plasma), the bioavailability was 65.6%.
